Results as given in article PMC4506515, “Structural basis for catalytically restrictive dynamics of a high-energy enzyme state” (Nature Communications, 2015).

Experiments:
adenylate kinase (AdK) [1] = molecular target: T1, adenylate kinase (AdK) (Escherichia coli, UniProt P69441); assay: NMR spectra of the ADP-saturated enzyme; type: binding; details: 30 mM MOPS, 50 mM NaCl, pH 7.0; 25 °C
T1 construct: full-length, no tag mentioned; pEAK-91 vector, AdK promotor, BL21(DE3); Blue Sepharose and size exclusion
T1 sequence (P69441 whole entry): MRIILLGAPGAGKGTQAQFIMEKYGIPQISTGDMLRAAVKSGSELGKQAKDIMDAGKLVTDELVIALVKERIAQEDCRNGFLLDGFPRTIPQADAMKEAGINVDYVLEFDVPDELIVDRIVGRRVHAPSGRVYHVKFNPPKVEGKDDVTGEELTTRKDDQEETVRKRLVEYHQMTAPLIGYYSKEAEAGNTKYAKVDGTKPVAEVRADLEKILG

adenylate kinase (AdK) [2] = molecular target: T1, adenylate kinase (AdK); assay: coupled spectroscopic assay, […] nm (NADH); type: biochemical; details: 0.3 mM AMP, 2 mM MgCl2, 100 mM Tris, 80 mM KCl, pH 7.5; 15, 25, 35 and 45 °C
adenylate kinase (AdK) [3] = molecular target: T2, adenylate kinase (AdK) (Escherichia coli, UniProt P69441, P177A); assay: isothermal titration calorimetry, single-site fit; type: binding; details: 30 mM MOPS, 50 mM NaCl, pH 7.0; measured at 15, 25, 35 and 45 °C
T2 construct: full-length, no tag mentioned; pEAK-91 vector, AdK promotor, BL21(DE3); Blue Sepharose and size exclusion
T2 sequence (P69441 whole entry P177A): as the sequence (P69441 whole entry) above, with P177A counted along it

adenylate kinase (AdK) [4] = molecular target: T1, adenylate kinase (AdK); assay: isothermal titration calorimetry, single-site fit; type: binding; details: 30 mM MOPS, 50 mM NaCl, pH 7.0; measured at 15, 25, 35 and 45 °C
adenylate kinase (AdK) [5] = molecular target: T3, adenylate kinase (AdK) (Escherichia coli, UniProt P69441, Y171W); assay: isothermal titration calorimetry, single-site fit; type: binding
T3 construct: full-length, no tag mentioned; pEAK-91 vector, AdK promotor, BL21(DE3); Blue Sepharose and size exclusion
T3 sequence (P69441 whole entry Y171W): as the sequence (P69441 whole entry) above, with Y171W counted along it

Nc1ncnc2c1ncn2[C@@H]1O[C@H](COP(=O)(O)OP(=O)(O)O)[C@@H](O)[C@H]1O [ADP]
NMR spectra of the ADP-saturated enzyme (adenylate kinase (AdK) [1]): wild-type AdK in complex with saturating concentrations of the natural substrate ADP

Nc1ncnc2c1ncn2[C@@H]1O[C@H](COP(=O)(O)OP(=O)(O)OP(=O)(O)O)[C@@H](O)[C@H]1O [ATP]
KM (adenylate kinase (AdK) [2]): ATP affinity, KM, for the used spectroscopic assay

Nc1ncnc2c1ncn2[C@@H]1O[C@H](COP(=O)(O)OP(=O)(O)OP(=O)(O)OP(=O)(O)OP(=O)(O)OC[C@H]2O[C@@H](n3cnc4c(N)ncnc43)[C@H](O)[C@@H]2O)[C@@H](O)[C@H]1O [Ap5a, P1,P5-di(adenosine-5′)pentaphosphate]
KD (adenylate kinase (AdK) [3]): KD values for the wild type, P177A and Y171W variants | KD (adenylate kinase (AdK) [4]): KD values for the wild type, P177A and Y171W variants | Kd (adenylate kinase (AdK) [5]): 250 ± 60 nM
